From PMC8472965, “BmK86-P1, a New Degradation Peptide with Desirable Thermostability and Kv1.2 Channel-Specific Activity from Traditional Chinese Scorpion Medicinal Material” (Toxins, 2021)
Positions of bridges follow the written chain, without caps; N, C: chain ends. Residues, ends and D or L forms follow the SMILES beside them.

What was measured:
Format in all cases: cell-based
hKv1.2-T383V = biological target: T1, hKv1.2-T383V (Homo sapiens, UniProt P16389, T383V); experiment: Whole-cell patch clamp, hKv1.2 channel mutant T383V; details: 100 nM peptide, HEK293T, mean ± S.E., n ≥ 3, SEM
T1 construct: expressed in transfected cells; host or cells: HEK293T
T1 sequence (P16389 whole entry T383V): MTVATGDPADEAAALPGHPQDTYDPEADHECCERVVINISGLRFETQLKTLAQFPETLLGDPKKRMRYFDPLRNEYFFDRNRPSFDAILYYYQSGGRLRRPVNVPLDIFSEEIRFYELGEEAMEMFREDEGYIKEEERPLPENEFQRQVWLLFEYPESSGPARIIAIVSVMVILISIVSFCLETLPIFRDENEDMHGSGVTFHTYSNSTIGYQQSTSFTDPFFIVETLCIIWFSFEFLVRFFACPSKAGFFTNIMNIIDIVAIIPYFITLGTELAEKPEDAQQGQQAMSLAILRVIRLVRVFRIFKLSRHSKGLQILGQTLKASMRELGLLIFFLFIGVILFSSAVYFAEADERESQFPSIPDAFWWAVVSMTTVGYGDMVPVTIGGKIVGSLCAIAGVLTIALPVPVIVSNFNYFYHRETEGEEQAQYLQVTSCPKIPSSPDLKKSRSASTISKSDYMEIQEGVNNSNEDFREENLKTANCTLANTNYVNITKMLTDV
Experimental: (§1) To determine the functional sites of the hKv1.2 channel responsible for the selectivity of BmK86-P1, six hKv1.2 mutants were obtained based on sequence differences between the pore regions of the hKv1.2 and hKv1.1 channels (Figure 4A). Then, the activities of 100 nM BmK86-P1 on these six mutant channels were tested. […] The other three mutant channels (hKv1.2-D352E, hKv1.2-R354A and hKv1.2-P359S) still kept similar sensitivities toward BmK86-P1 compared with the wild-type hKv1.2 channel (Figure 4H,I,K,N).
(§2) All potassium channel expression vectors were given by others or constructed by ourselves. HEK293T cells were cultured in Dulbecco’s modified Eagle medium (Gibco, Pittsburgh, PA, USA) with 10% fetal bovine serum and penicillin/streptomycin (100 units/mL) in a 5% CO2 incubator at 37 °C. Potassium channel expression vectors and pEGFP-N1 were co-transfected into HEK293T cells using TurboFect in vitro Transfection Reagent (Thermo Scientific, Waltham, MA, USA) according to the manufacturer’s instructions. The potassium currents were recorded after transfection for 1 to 3 days.
(§3) The channel currents were measured and recorded by whole-cell patch clamp technology according to previously published references. […] The channel currents were recorded at room temperature (~25 °C) using an EPC 10 patch clamp amplifier. […]

hKv1.2-D352E = biological target: T2, hKv1.2-D352E (Homo sapiens, UniProt P16389, D352E); experiment: Whole-cell patch clamp, hKv1.2 channel mutant D352E; details: 100 nM peptide, HEK293T, mean ± S.E., n ≥ 3, SEM
T2 construct: expressed in transfected cells; host or cells: HEK293T
T2 sequence (P16389 whole entry D352E): as the sequence (P16389 whole entry T383V) above, with D352E, V383T counted along it
Experimental: as §1, §2, §3

mKv4.1 channel = biological target: T3, mKv4.1 channel (Mus musculus, UniProt Q03719); experiment: Whole-cell patch clamp, mKv4.1 channel overexpressed in HEK293T cells; details: 1 μM peptide, mean ± S.E., n ≥ 3, SEM
T3 construct: expressed in transfected cells; host or cells: HEK293T
T3 sequence (Q03719 1-651): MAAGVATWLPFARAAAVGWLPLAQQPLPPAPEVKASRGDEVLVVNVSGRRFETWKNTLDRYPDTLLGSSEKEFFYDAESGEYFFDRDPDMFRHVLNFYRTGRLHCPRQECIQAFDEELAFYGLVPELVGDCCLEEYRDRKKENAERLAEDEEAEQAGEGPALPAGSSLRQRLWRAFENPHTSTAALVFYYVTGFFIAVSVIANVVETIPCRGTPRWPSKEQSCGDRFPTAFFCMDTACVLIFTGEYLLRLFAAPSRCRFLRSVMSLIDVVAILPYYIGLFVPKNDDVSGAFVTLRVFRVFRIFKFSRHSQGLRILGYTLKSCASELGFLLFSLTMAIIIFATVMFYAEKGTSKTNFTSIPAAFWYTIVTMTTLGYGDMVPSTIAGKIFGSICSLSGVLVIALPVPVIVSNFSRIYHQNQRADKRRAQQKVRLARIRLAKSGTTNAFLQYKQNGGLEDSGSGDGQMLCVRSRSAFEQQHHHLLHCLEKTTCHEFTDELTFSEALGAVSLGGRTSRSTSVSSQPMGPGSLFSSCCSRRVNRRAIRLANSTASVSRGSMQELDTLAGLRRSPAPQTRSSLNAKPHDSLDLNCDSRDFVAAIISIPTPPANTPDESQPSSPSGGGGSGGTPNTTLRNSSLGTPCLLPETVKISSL
Experimental: To investigate the electrophysiological activities of BmK86-P1, the whole-cell patch clamp technique was applied to test the effects of BmK86-P1 on multiple potassium channels. The hKv1.1, hKv1.2, hKv1.3, hKv1.6, hKv3.2, mKv4.1, rKv4.2, rKv4.3 and hERG channels were overexpressed in HEK293T cells, then the inhibitory effects of BmK86-P1 at 1 μM on these potassium channels were measured. […] To further investigate the affinity of BmK86-P1 inhibiting the hKv1.2 channel, a dose-dependent study was performed by examining the inhibitory effects of different concentrations of BmK86-P1.
All potassium channel expression vectors were given by others or constructed by ourselves. HEK293T cells were cultured in Dulbecco’s modified Eagle medium (Gibco, Pittsburgh, PA, USA) with 10% fetal bovine serum and penicillin/streptomycin (100 units/mL) in a 5% CO2 incubator at 37 °C. […] The potassium currents were recorded after transfection for 1 to 3 days.
as §3
The ClampFit (Molecular Devices, Sunnyvale, CA, USA) and SigmaPlot software ([…], Chicago, IL, USA) were used to analyze the recorded data. […]

hKv1.2-P359S = biological target: T4, hKv1.2-P359S (Homo sapiens, UniProt P16389, P359S); experiment: Whole-cell patch clamp, hKv1.2 channel mutant P359S; details: 100 nM peptide, HEK293T, mean ± S.E., n ≥ 3, SEM
T4 construct: expressed in transfected cells; host or cells: HEK293T
T4 sequence (P16389 whole entry P359S): as the sequence (P16389 whole entry T383V) above, with P359S, V383T counted along it
Experimental: as §1, §2, §3

## CC[C@H](C)[C@@H]1NC(=O)[C@@H]2CSSC[C@H](NC(=O)[C@H](C)N)C(=O)N[C@@H](CO)C(=O)N[C@@H](CCCCN)C(=O)N3CCC[C@H]3C(=O)N[C@H]3CSSC[C@H](NC(=O)[C@H](CCCNC(=N)N)NC(=O)CNC(=O)[C@H](CC(N)=O)NC1=O)C(=O)N[C@@H](Cc1c[nH]cn1)C(=O)N[C@H](C(=O)N[C@@H](Cc1ccc(O)cc1)C(=O)N[C@@H](Cc1ccc(O)cc1)C(=O)O)CSSC[C@H](NC(=O)[C@H](Cc1ccc(O)cc1)NC(=O)[C@H](CCCCN)NC(=O)[C@H](CCCNC(=N)N)NC3=O)C(=O)N[C@@H]([C@@H](C)CC)C(=O)N[C@@H](CC(=O)O)C(=O)N[C@@H](CCCCN)C(=O)NCC(=O)N[C@@H](C)C(=O)N[C@@H](CCCNC(=N)N)C(=O)N[C@@H](CC(N)=O)C(=O)NCC(=O)N[C@@H](CCCCN)C(=O)N2 [BmK86-P1] (H-ACSKPCRKYCIDKGARNGKCINGRCHCYY-OH; disulfide 2-20, 6-25, 10-27 (inferred); N-terminus and C-terminus assumed)
hKv1.2-T383V
  inhibition of hKv1.2-T383V channel currents: 32.1 ± 2.8%
hKv1.2-D352E
  inhibition of hKv1.2-D352E channel currents: 74.8 ± 1.2%
mKv4.1 channel
  inhibition of Kv4.1 channel currents: 3.4 ± 1.1%
hKv1.2-P359S
  inhibition of hKv1.2-P359S channel currents: 72.4 ± 5.5%
